Laboratory results published in the NIST ThermoML archive (doi:10.1021/je800325d).

Key:
[1] = xn = mol fraction of the nth substance listed; conditions: 101 kPa, Liquid
[2] = refractive index (Na D-line) (dimensionless); xn = mol fraction of the nth substance listed; conditions: 101 kPa, Liquid

CC(=O)OCCC(C)C [3-methylbutyl ethanoate] + Cc1ccccc1C
Conditions	mass density, [1] [kg/m3]	refractive index, [2]	viscosity, [1] [mPa·s]
303.15 K, x1 = 0.0856	869.7	1.4903	0.705
303.15 K, x1 = 0.1739	869.5	1.4806	0.707
303.15 K, x1 = 0.2554	868.2	1.4721	0.709
303.15 K, x1 = 0.3538	867.8	1.462	0.712
303.15 K, x1 = 0.445	867.4	1.453	0.714
303.15 K, x1 = 0.5481	866	1.4436	0.718
303.15 K, x1 = 0.6564	865	1.4319	0.722
303.15 K, x1 = 0.7531	864.1	1.4217	0.726
303.15 K, x1 = 0.8542	863.7	1.4113	0.731
303.15 K, x1 = 0.9538	863.2	1.4018	0.738
313.15 K, x1 = 0.0856	861.4	1.488	0.622
313.15 K, x1 = 0.1739	860.8	1.4779	0.623
313.15 K, x1 = 0.2554	859.8	1.4695	0.623
313.15 K, x1 = 0.3538	859.1	1.458	0.624
313.15 K, x1 = 0.445	858.4	1.4486	0.625
313.15 K, x1 = 0.5481	856.7	1.4375	0.627
313.15 K, x1 = 0.6564	855.8	1.4258	0.631
313.15 K, x1 = 0.7531	855.1	1.4157	0.635
313.15 K, x1 = 0.8542	854.7	1.4062	0.64
313.15 K, x1 = 0.9538	853.9	1.3961	0.646

COC(=O)c1ccccc1 [methyl benzoate] + CCc1ccccc1
[1]
Conditions	mass density, 303.15 K [kg/m3]	mass density, 313.15 K [kg/m3]	viscosity, 303.15 K [mPa·s]	viscosity, 313.15 K [mPa·s]
x1 = 0.1033	877.9	870.2	0.656	0.583
x1 = 0.1927	898.9	890.3	0.701	0.641
x1 = 0.2952	921.6	912.7	0.784	0.687
x1 = 0.3974	943.6	935	0.857	0.75
x1 = 0.4947	963.3	954.1	0.947	0.824
x1 = 0.5866	982.3	973.7	1.043	0.925
x1 = 0.6963	1000.3	992	1.17	1.048
x1 = 0.7953	1023.3	1010.3	1.308	1.165
x1 = 0.9016	1053.3	1043.3	1.464	1.287
x1 = 0.951	1056.8	1047.4	1.566	1.346

refractive index, [2], Standard Abbe refractometry
Conditions	x1 = 0.1033	x1 = 0.1927	x1 = 0.2952	x1 = 0.3974	x1 = 0.4947	x1 = 0.5866	x1 = 0.6963	x1 = 0.7953	x1 = 0.9016	x1 = 0.951
303.15 K	1.4911	1.4933	1.4945	1.4958	1.4968	1.4978	1.5022	1.5054	1.509	1.5092
313.15 K	1.4888	1.49	1.4918	1.4928	1.4937	1.4955	1.4985	1.5014	1.5044	1.5064

COC(=O)c1ccccc1 [methyl benzoate] + Cc1ccc(C)cc1
[1]
Conditions	mass density, 303.15 K [kg/m3]	mass density, 313.15 K [kg/m3]	viscosity, 303.15 K [mPa·s]	viscosity, 313.15 K [mPa·s]
x1 = 0.0958	873	864.7	0.616	0.551
x1 = 0.2055	898.1	889.5	0.693	0.609
x1 = 0.3011	919.3	911.1	0.759	0.67
x1 = 0.399	940.9	932.3	0.839	0.728
x1 = 0.4951	961.9	953.1	0.922	0.803
x1 = 0.5988	984.4	975.7	1.033	0.889
x1 = 0.6973	1006.2	1000.4	1.152	0.992
x1 = 0.7846	1024.4	1013	1.269	1.093
x1 = 0.9027	1056	1047.3	1.45	1.253
x1 = 0.948	1059.2	1050.3	1.561	1.322

refractive index, [2], Standard Abbe refractometry
Conditions	x1 = 0.0958	x1 = 0.2055	x1 = 0.3011	x1 = 0.399	x1 = 0.4951	x1 = 0.5988	x1 = 0.6973	x1 = 0.7846	x1 = 0.9027	x1 = 0.948
303.15 K	1.492	1.4939	1.4947	1.4959	1.4969	1.4982	1.5012	1.5055	1.5122	1.5104
313.15 K	1.4913	1.4922	1.4932	1.4945	1.4952	1.4961	1.4989	1.5014	1.5088	1.509
